Patent US11180657B2, “Polysulfonated fluorescence dyes” (ATTO-TEC GmbH, priority 2017, dated 2021)
Marks after values point to notes of the source that are not given here.

Tests used:
Format in all cases: physicochemical
[1] = Lactone or pseudobase formation in aqueous weakly alkaline solution; conditions: aqueous weakly alkaline solutions; reversible
Text: Normally such lactones are adequately stabilized only in aprotic solvents such as acetone or chloroform. In protic solvents the carboxyl group is deprotonated and a slightly more short-wave absorbing and fluorescent zwitterion is formed. In the exemplary compounds, however, colorless compounds are formed due to the strong electron attraction of the indicated substituents, due to internal ester formation and the associated interruption of the conjugated system. If the carboxyl group is not free but is present as an ester or tertiary amide, so-called pseudobases are formed, through nucleophilic attack (hydroxide ions etc.) at the central carbon atom, which is stronger positivized by the electron-attracting substituents, which pseudobases are likewise colorless due to the interruption of the conjugated system. Both reactions are reversible; by changing the pH value, the dielectric constant (“polarity”) and/or the capability of hydrogen bridge bonding (“proticity”), the dye can be restored. Therefore such compounds can in principle be used as probes for the properties of their direct environment: Depending on the milieu, the molecules are present in colorless or colored form. Associated therewith is also a sort of fluorogenicity, because the longwave fluorescence appears only in the dye form.

[2] = Absorption maximum of the dye
Text: (§1) Examples of the compounds according to the invention are listed in Tables 2-6, where the structures as well as the absorption and fluorescence maxima are indicated. The spectra of selected compounds are shown FIGS. 5-18.

[3] = Fluorescence maximum of the dye
Text: as §1

[4] = Fluorescence quencher property (dye itself not fluorescent)
Text: A particular subgroup of the compounds according to the invention is fluorescence quenchers. These dyes are not fluorescent themselves, but can act as acceptors for the emission of fluorescent compounds. A widespread area of use of such quenchers is for instance the measurement of the geometry (distances, size, and arrangement of molecular groups) or the reactivity (enzyme activity, reaction speeds, etc.) using Förster resonance energy transfer (FRET). The fluorescence of the donor can only appear when the distance between donor and acceptor exceeds a critical value. Below this distance, the fluorescence of the donor is quenched by the acceptor (=quencher) which is not fluorescent by itself. An overview of the bioanalytical applications of the FRET technology is provided for example by A. Roda, M. Guardigli, E. Micheline, M. Mirasoli, Nanobioanalytical luminescence: Förster-type energy transfer methods, Anal. Bioanal. Chem. 393, 2009, 109-123.
Examples of quenchers according to the invention are compounds 14, 15, 16 and 17. These rhodamines represent a further development of the dyes designated as “violamines” because of their magenta-colored solutions, see for example H. E. Fierz-David, Künstliche Organische Farbstoffe [Artificial Organic Dyes], Springer-Verlag, Berlin, 1926, p. 276ff. However, also the structure of other dye classes may be modified in this way. Examples according to the invention include compounds 49, 50 and 51 from the class of carbopyronines.

Structure (SMILES)	λfl ([3]; solvent PBS pH 7.4)	λabs ([2]; solvent PBS pH 7.4)	further results
O=C(O)C1CCCN1C(=O)c1ccccc1-c1c2cc(S(=O)(=O)O)/c(=N/Cc3ccc(S(=O)(=O)O)cc3S(=O)(=O)O)cc-2oc2cc(NCc3ccc(S(=O)(=O)O)cc3S(=O)(=O)O)c(S(=O)(=O)O)cc12 (stereo not shown) [Compound 10]	556^b nm		formation of colorless lactone or pseudobase [1]: easily form a lactone or pseudobase; λabs ([2]; solvent water/acetonitrile 1:1): 534^c nm
O=C(O)C1CCN(C(=O)c2ccccc2-c2c3cc(S(=O)(=O)O)/c(=N/Cc4ccc(S(=O)(=O)O)cc4S(=O)(=O)O)cc-3oc3cc(NCc4ccc(S(=O)(=O)O)cc4S(=O)(=O)O)c(S(=O)(=O)O)cc23)CC1 [Compound 11]	550^b nm		formation of colorless lactone or pseudobase [1]: easily form a lactone or pseudobase; λabs ([2]; solvent water/acetonitrile 1:1): 529^c nm
O=C(O)c1ccccc1-c1c2cc/c(=N/c3ccc(S(=O)(=O)O)cc3)cc-2oc2cc(Nc3ccc(S(=O)(=O)O)cc3)ccc12 [Compound 14]		560^b nm	fluorescence quencher (not fluorescent itself, acceptor for emission of fluorescent compounds) [4]: quenchers
O=C(O)c1ccccc1-c1c2cc(S(=O)(=O)O)/c(=N/c3ccc(S(=O)(=O)O)cc3)cc-2oc2cc(Nc3ccc(S(=O)(=O)O)cc3)c(S(=O)(=O)O)cc12 [Compound 15]			λabs ([2]; solvent water/acetonitrile 1:1): 558^c nm; fluorescence quencher (not fluorescent itself, acceptor for emission of fluorescent compounds) [4]: quenchers
CN(CCCC(=O)O)C(=O)c1ccccc1-c1c2cc(S(=O)(=O)O)/c(=N/c3ccc(S(=O)(=O)O)cc3)cc-2oc2cc(Nc3ccc(S(=O)(=O)O)cc3)c(S(=O)(=O)O)cc12 [Compound 16]			λabs ([2]; solvent water/acetonitrile 1:1): 566^c nm; fluorescence quencher (not fluorescent itself, acceptor for emission of fluorescent compounds) [4]: quenchers
CN(CCCC(=O)O)C(=O)c1ccccc1-c1c2cc/c(=N\c3ccc(S(=O)(=O)O)cc3)c(S(=O)(=O)O)c-2oc2c(S(=O)(=O)O)c(Nc3ccc(S(=O)(=O)O)cc3)ccc12 [Compound 17]			λabs ([2]; solvent water/acetonitrile 1:1): 555^c nm; fluorescence quencher (not fluorescent itself, acceptor for emission of fluorescent compounds) [4]: quenchers
CN(CCCC(=O)O)C(=O)c1ccccc1-c1c2cc(S(=O)(=O)O)/c(=N/CCc3ccc(S(=O)(=O)O)cc3)cc-2oc2cc(N)c(S(=O)(=O)O)cc12 [Compound 20]	550^b nm		formation of colorless lactone or pseudobase [1]: easily form a lactone or pseudobase; λabs ([2]; solvent water/acetonitrile 1:1): 528^c nm
CC1(C)c2cc(Nc3ccc(S(=O)(=O)O)cc3)ccc2C(c2c(F)c(F)c(SCC(=O)O)c(F)c2F)=c2cc3c(cc21)=[N+](Cc1ccc(S(=O)(=O)O)cc1S(=O)(=O)O)CCC3 [Compound 49]		648^b nm	fluorescence quencher (not fluorescent itself, acceptor for emission of fluorescent compounds) [4]: quenchers
CC1=CC(C)(C)[N+](Cc2ccc(S(=O)(=O)O)cc2S(=O)(=O)O)=c2cc3c(cc21)=C(c1c(F)c(F)c(SCC(=O)O)c(F)c1F)c1ccc(Nc2ccc(S(=O)(=O)O)cc2)cc1C3(C)C [Compound 50]		669^b nm	fluorescence quencher (not fluorescent itself, acceptor for emission of fluorescent compounds) [4]: quenchers
CC1(C)c2cc(Nc3ccc(S(=O)(=O)O)cc3)ccc2C(c2c(F)c(F)c(SCC(=O)O)c(F)c2F)=c2cc3c(cc21)=[N+](Cc1ccc(S(=O)(=O)O)cc1S(=O)(=O)O)C(C)(C)CC3CS(=O)(=O)O (stereo not shown) [Compound 51]		650^b nm	fluorescence quencher (not fluorescent itself, acceptor for emission of fluorescent compounds) [4]: quenchers
C[Si]1(C)c2cc3c(cc2C=c2cc4c(cc21)=[N+](Cc1ccc(S(=O)(=O)O)cc1S(=O)(=O)O)CCC4)CCCN3CCCC(=O)O [Compound 94]	693^b nm	670^b nm	
C[Si]1(C)c2cc3c(cc2C(NCCCC(=O)O)=c2cc4c(cc21)=[N+](Cc1ccc(S(=O)(=O)O)cc1S(=O)(=O)O)CCC4)CCCN3Cc1ccc(S(=O)(=O)O)cc1S(=O)(=O)O [Compound 95]	661^b nm	489^b nm	
CC1(C)C=C(CS(=O)(=O)O)c2cc3c(cc2N1CCS(=O)(=O)O)[Si](C)(C)c1cc2c(cc1=C3NC(CCS(=O)(=O)O)C(=O)O)C(CS(=O)(=O)O)=CC(C)(C)[N+]=2CCS(=O)(=O)O (stereo not shown) [Compound 96]	695^b nm	518^b nm	
CC1(C)CC(CS(=O)(=O)O)c2cc3c(cc2=[N+]1CCCC(=O)O)Oc1cc(N(Cc2ccc(S(=O)(=O)O)cc2S(=O)(=O)O)Cc2ccc(S(=O)(=O)O)cc2S(=O)(=O)O)ccc1N=3 (stereo not shown) [Compound 97]	667^b nm	649^b nm	
CC1(C)C=C(CS(=O)(=O)O)c2cc3c(cc2N1Cc1ccc(S(=O)(=O)O)cc1S(=O)(=O)O)Oc1cc2c(cc1=N3)C(CS(=O)(=O)O)=CC(C)(C)[N+]=2CCCC(=O)O [Compound 100]	718^b nm	701^b nm	
CC1(C)CC(CS(=O)(=O)O)c2cc3c(cc2=[N+]1Cc1ccc(S(=O)(=O)O)cc1S(=O)(=O)O)Oc1cc(N)c2cc(S(=O)(=O)O)ccc2c1N=3 (stereo not shown) [Compound 101]	678^b nm	647^b nm	
CC1(C)c2cc3c(cc2N=c2cc4c(cc21)=[N+](CCCC(=O)O)C(C)(C)CC4CS(=O)(=O)O)CCCN3Cc1ccc(S(=O)(=O)O)cc1S(=O)(=O)O (stereo not shown) [Compound 102]	742^b nm	721^b nm	
CC1(C)c2cc3c(cc2N=c2cc4c(cc21)=[N+](CCCC(=O)O)C(C)(C)C=C4CS(=O)(=O)O)C(CS(=O)(=O)O)=CC(C)(C)N3Cc1ccc(S(=O)(=O)O)cc1S(=O)(=O)O [Compound 104]	778^b nm	758^b nm	

Continued, in another order:

λfl ([3]; solvent PBS pH 7.4)	λabs ([2]; solvent PBS pH 7.4)	Structure (SMILES)	further results
682^b nm	664^b nm	CC1(C)CC(CS(=O)(=O)O)c2cc3c(cc2=[N+]1CCCC(=O)O)Oc1cc2c(cc1N=3)CCCN2Cc1ccc(S(=O)(=O)O)cc1S(=O)(=O)O (stereo not shown) [Compound 98]	
700^b nm	682^b nm	CC1(C)C=C(CS(=O)(=O)O)c2cc3c(cc2=[N+]1CCCC(=O)O)Oc1cc2c(cc1N=3)CCCN2Cc1ccc(S(=O)(=O)O)cc1S(=O)(=O)O [Compound 99]	
761^b nm	740^b nm	CC1(C)c2cc3c(cc2N=c2cc4c(cc21)=[N+](CCCC(=O)O)C(C)(C)C=C4CS(=O)(=O)O)CCCN3Cc1ccc(S(=O)(=O)O)cc1S(=O)(=O)O [Compound 103]	
413 nm	349 nm	Cc1cc(=O)[nH]c2cc(NCS(=O)(=O)O)ccc12 [Compound 105]	λabs ([2]; solvent ethanol): 355 nm; λfl ([3]; solvent ethanol): 406 nm
410^b nm	350^b nm	Cc1cc(=O)n(CC(=O)O)c2cc(NCS(=O)(=O)O)ccc12 [Compound 106]	
413^b nm	351^b nm	Cc1cc(=O)n(CC(=O)O)c2cc(NCc3ccc(S(=O)(=O)O)cc3S(=O)(=O)O)ccc12 [Compound 107]	
411^b nm	348^b nm	Cc1cc(=O)n(CC(=O)O)c2cc(NCS(=O)(=O)O)c(S(=O)(=O)O)cc12 [Compound 108]	
418^b nm	349^b nm	Cc1cc(=O)n(CC(=O)O)c2cc(NCc3ccc(S(=O)(=O)O)cc3S(=O)(=O)O)c(S(=O)(=O)O)cc12 [Compound 109]	
353^b nm	354^b nm	Cc1c(CC(=O)O)c(=O)oc2cc(NCS(=O)(=O)O)ccc12 [Compound 110]	
449^b nm	348^b nm	Cc1c(CC(=O)O)c(=O)oc2cc(NCc3ccc(S(=O)(=O)O)cc3S(=O)(=O)O)c(S(=O)(=O)O)cc12 [Compound 111]	
416^b nm	338^b nm	Cc1c(CC(=O)O)c(=O)oc2cc(Nc3nc(Cl)nc(NCCS(=O)(=O)O)n3)ccc12 [Compound 112]	
385^b nm	338^b nm	Cc1cc(=O)n(CC(=O)O)c2cc(Nc3nc(Cl)nc(NCCS(=O)(=O)O)n3)ccc12 [Compound 114]	
383^b nm	335^b nm	Cc1cc(=O)n(CC(=O)O)c2cc(Nc3nc(NCCS(=O)(=O)O)nc(NCCS(=O)(=O)O)n3)ccc12 [Compound 115]	
